Like-named read-outs stand apart in the source and are kept apart here.
What was measured:
human TLR7 = target: T1, human TLR7 (Homo sapiens, UniProt Q9NYK1); experiment: TLR7 reporter cell assay (HEK293 cells stably expressing human TLR7 with NF-κB-driven SEAP reporter); assay type: cell-based; conditions: for EC50: fit of SEAP dose response, ymax from 28.5 μM resiquimod
T1 construct: host or cells: HEK293
T1 sequence (Q9NYK1 27-1049): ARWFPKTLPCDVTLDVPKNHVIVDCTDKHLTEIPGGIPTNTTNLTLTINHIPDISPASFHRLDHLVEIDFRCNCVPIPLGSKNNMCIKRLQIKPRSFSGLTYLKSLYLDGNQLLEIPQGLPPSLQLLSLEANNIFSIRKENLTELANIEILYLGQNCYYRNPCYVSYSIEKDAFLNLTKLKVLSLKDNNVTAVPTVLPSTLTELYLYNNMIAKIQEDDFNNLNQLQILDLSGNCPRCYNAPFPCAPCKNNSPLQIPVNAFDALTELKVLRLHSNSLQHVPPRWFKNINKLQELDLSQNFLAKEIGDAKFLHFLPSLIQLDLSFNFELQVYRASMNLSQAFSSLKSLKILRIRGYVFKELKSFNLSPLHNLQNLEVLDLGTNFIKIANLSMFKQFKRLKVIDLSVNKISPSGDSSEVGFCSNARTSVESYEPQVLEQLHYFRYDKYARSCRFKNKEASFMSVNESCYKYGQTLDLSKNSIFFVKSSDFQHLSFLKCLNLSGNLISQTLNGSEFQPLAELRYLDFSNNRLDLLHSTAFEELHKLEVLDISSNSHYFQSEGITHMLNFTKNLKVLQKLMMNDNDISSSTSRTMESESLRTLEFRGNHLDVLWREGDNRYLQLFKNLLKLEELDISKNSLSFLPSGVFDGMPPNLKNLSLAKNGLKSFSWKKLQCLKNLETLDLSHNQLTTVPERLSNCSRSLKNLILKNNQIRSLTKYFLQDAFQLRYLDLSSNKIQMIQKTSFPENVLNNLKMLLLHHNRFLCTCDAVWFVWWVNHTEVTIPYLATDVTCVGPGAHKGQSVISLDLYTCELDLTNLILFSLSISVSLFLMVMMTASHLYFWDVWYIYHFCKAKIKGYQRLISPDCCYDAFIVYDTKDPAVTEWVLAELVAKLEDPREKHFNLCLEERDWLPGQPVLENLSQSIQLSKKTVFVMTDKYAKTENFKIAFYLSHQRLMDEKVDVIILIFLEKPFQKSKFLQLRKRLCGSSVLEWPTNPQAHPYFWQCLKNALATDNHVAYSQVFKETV
Text: The engagement of TLRs by cognate ligands triggers downstream signaling cascades, leading to the activation of NF-κB and other transcription factors which initiate various immunomodulatory effects. The human embryonic kidney cell line, HEK293, is essentially non-responsive to TLR agonists, but ectopic expression of TLRs in these cells allows cognate agonists to activate endogenous NF-κB. Accordingly, the HEK293-TLR-NF-κB inducible reporter system is used to assay TLR agonists.
HEK293 cell lines stably expressing human TLR7 or TLR8 together with an NF-κB-driven-secreted alkaline phosphatase (SEAP) reporter were invented at InvivoGen (San Diego, California, USA) and used to assess compounds of the present invention for TLR7 and TLR8 agonist activities. Cells were seeded at 2-5×10^4 cells/well in 96 well plates (200 μl/well) and treated with various concentrations of compound (10 μl) for 15-24 hours. SEAP activity was determined by measuring OD at 650 nm; the media used to culture the cell lines contains the reagents required for SEAP detection. The EC50 values in Table 1 are calculated from fitting the dose response of measured SEAP activity for each compound to the following equation: Y=ymax*c^nh/(EC50^nh+c^nh)+blank where Y is the experimentally measured OD650 at concentration c of test article, blank is the observed OD650 in the absence of TLR7 agonist, ymax is the difference between the measured OD650 in the presence of 28.5 μM resiquimod and the blank and values of EC50 and nh are determined by nonlinear least squares analysis. Resiquimod is a known TLR7 and TLR8 agonist.
Compound A is 5-amino-3-((2R,3R,5S)-3-hydroxy-5-((S)-1-hydroxypropyl)tetrahydrofuran-2-yl)thiazolo[4,5-d]pyrimidine-2,7(3H,6H)-dione)

[1] = tested on: hPBMCs (Human Peripheral Blood Mononuclear Cells); experiment: Induction of interferon-α in hPBMCs in vitro; assay type: cell-based; conditions: for Emax / minimal effective concentration: Homo sapiens, PBMC; for Emax: 24 h, peak IFNα2a as percentage of peak response of standard 2-Amino-7-(cyclopropylmethyl)-9-B-D-xylofuranosyl-7,9-dihydro-1H-purine-6,8-dione, averaged across donors, read-out: IFNrmax, Relative Maximal IFNα2a Production (%); for minimal effective concentration: minimal effective concentration for interferon-α production (generally at least 80 pg/ml above baseline), geometric mean across at least three donors, 24 hours, read-out: Weighted MEC
Description: Treatment of hPBMCs with a TLR7 agonist typically induces some production of interferon-α as well as lesser amounts of a variety of other cytokines and chemokines. A typical experiment uses hPBMCs isolated from a healthy donor and placed in replicate cell culture wells; typically 1.0-7.5×10^6 cells are placed in each well. A test compound is added and the cells are cultured for 24 hours at 37° C. in a humidified atmosphere containing 5% CO2 post-addition; untreated controls are included. Secreted interferon-α production is measured using an a multisubtype interferon-α ELISA kit like those from PBL Assay Sciences or specifically as IFNα2a as part of a panel of cytokines and chemokines using luminex methodologies.
The minimal effective concentration (MEC) is the minimum concentration in a dose response curve where a significant increase in interferon-α production (generally at least 80 pg/ml) is observed above baseline. MEC values for each compound are determined for at least three donors. The weighted MEC for each compound is the geometric mean of all individual MECs across all donors. Concentrations tested typically consist of a two-fold dilution series starting at 100 μM. In the calculation of weighted MEC, any individual MEC value greater the highest concentration tested is arbitrarily set to two times the highest concentration tested unless all MECs for a compound exceed this value. The maximal amount of IFNα2a for each donor is determined from dose dependence for each compound.
In order to normalize for variation in each hPBMC preparation, these values are first transformed by expressing as a percentage of peak response measured with a standard (2-Amino-7-(cyclopropylmethyl)-9-B-D-xylofuranosyl-7,9-dihydro-1H-purine-6,8-dione) and then averaging the results across all donors, this average referred to as IFNrmax.
IFNmax is the maximum amount of IFN observed at any concentration across the evaluated concentration range. MEC and IFNmax values for three select compound are shown for three donors (Table 3). The range of tested concentrations were 0.625-5 μM for Imiquimod, 3.125-100 μM for both Compound A and Compound 1, 12.5-100 μM for Compound 2.

[2] = HEK293, 500 μM compound, SEAP activity (OD 650 nm) relative to 28.5 μM resiquimod, 15-24 hours, read-out: Response at 500 μM Compound as a Percent of Resiquimod Response
[3] = HEK293, read-out: Response at 500 μM Compound as a Percent of Resiquimod Response

| Structure (SMILES) | EC50 (human TLR7; 15-24 hours) [µM] | Emax [1] [%] | minimal effective concentration [1] [µM] | Emax at 500 µM (human TLR7; [3]) [%] | further results |
| --- | --- | --- | --- | --- | --- |
| Nc1nc2c(c(=O)[nH]1)n(CCC(F)(F)F)c(=O)n2[C@@H]1O[C@H]([C@@H](O)C(F)(F)F)C[C@H]1O [Compound 28, 2-Amino-9-((2R,3R,5S)-3-hydroxy-5-((R)-2,2,2-trifluoro-1-hydroxyethyl)tetrahydrofuran-2-yl)-7-(3,3,3-trifluoropropyl)-7,9-dihydro-1H-purine-6,8-dione] | 519 | 105 | 9.9 | – | Emax at 500 µM (human TLR7; [2]): 47% |
| C#CC[C@H](O)[C@@H]1C[C@@H](O)[C@H](n2c(=O)n(CC#C)c3c(=O)[nH]c(N)nc32)O1 [Compound 35, 2-Amino-9-((2R,3R,5S)-3-hydroxy-5-((S)-1-hydroxybut-3-yn-1-yl)tetrahydrofuran-2-yl)-7-(prop-2-yn-1-yl)-7,9-dihydro-1H-purine-6,8-dione] | 114 | 207 | 3.1 | – | Emax at 500 µM (human TLR7; [2]): 91% |
| C#CCn1c(=O)n([C@@H]2O[C@@H](C(=O)CC)C[C@H]2O)c2nc(N)[nH]c(=O)c21 [Compound 38, 2-Amino-9-((2R,3R,5R)-3-hydroxy-5-propionyltetrahydrofuran-2-yl)-7-(prop-2-yn-1-yl)-7,9-dihydro-1H-purine-6,8-dione] | – | – | – | < 5 | – |
| C=C=Cn1c(=O)n([C@@H]2O[C@H]([C@H](O)CC)C[C@H]2O)c2nc(N)[nH]c(=O)c21 [Compound 3, 2-amino-9-((2R,3R,5S)-3-hydroxy-5-((R)-1-hydroxypropyl)tetrahydrofuran-2-yl)-7-(propa-1,2-dien-1-yl)-7,9-dihydro-1H-purine-6,8-dione] | – | – | – | < 5 | – |
| C#CCn1c(=O)n([C@@H]2O[C@H]([C@H](O)C(F)(F)F)C[C@H]2O)c2nc(N)[nH]c(=O)c21 [Compound 11, 2-Amino-9-((2R,3R,5S)-3-hydroxy-5-((S)-2,2,2-trifluoro-1-hydroxyethyl)tetrahydrofuran-2-yl)-7-(prop-2-yn-1-yl)-7,9-dihydro-1H-purine-6,8-dione] | – | – | – | < 5 | – |
| CC(C)Cn1cnc2c(N)nc3ccccc3c21 [Imiquimod, reference compound] | – | – | – | – | Donor 1 MEC ([1]; Donor 1, interferon-α production): 5 µM; Donor 1 IFNmax ([1]; Donor 1, maximum IFN at any concentration of the evaluated range): 793 pg/mL; Donor 2 MEC ([1]; Donor 2, interferon-α production): 5 µM; Donor 2 IFNmax ([1]; Donor 2, maximum IFN at any concentration of the evaluated range): 193 pg/mL; Donor 3 MEC ([1]; Donor 3, interferon-α production): 1.25 µM; Donor 3 IFNmax ([1]; Donor 3, maximum IFN at any concentration of the evaluated range): 1350 pg/mL |
| C#CCn1c(=O)n([C@@H]2O[C@H](C(=O)CC)C[C@H]2O)c2nc(N)[nH]c(=O)c21 [Compound 37, 2-Amino-9-((2R,3R,5S)-3-hydroxy-5-propionyltetrahydrofuran-2-yl)-7-(prop-2-yn-1-yl)-7,9-dihydro-1H-purine-6,8-dione] | 462 | – | – | 40 | – |
| C#CCn1c(=O)n([C@@H]2O[C@H](CO)[C@@H](F)[C@H]2O)c2nc(N)[nH]c(=O)c21 [Compound B, 2-Amino-9-((2R,3S,4S,5R)-4-fluoro-3-hydroxy-5-(hydroxymethyl)tetrahydrofuran-2-yl)-7-(prop-2-yn-1-yl)-7,9-dihydro-1H-purine-6,8-dione, reference compound] | – | 260 | 17.9 | – | – |
| C#CCn1c(=O)n([C@@H]2O[C@H]([C@@H](O)C(F)(F)F)C[C@H]2O)c2nc(N)[nH]c(=O)c21 [Compound 10, 2-Amino-9-((2R,3R,5S)-3-hydroxy-5-((R)-2,2,2-trifluoro-1-hydroxyethyl)tetrahydrofuran-2-yl)-7-(prop-2-yn-1-yl)-7,9-dihydro-1H-purine-6,8-dione] | 311 | – | – | 72 | – |
| C#CCn1c(=O)n([C@@H]2O[C@H]([C@H](O)CC)[C@H](F)[C@H]2O)c2nc(N)[nH]c(=O)c21 [Compound 12, 2-Amino-9-((2R,3S,4R,5R)-4-fluoro-3-hydroxy-5-((R)-1-hydroxypropyl)tetrahydrofuran-2-yl)-7-(prop-2-yn-1-yl)-7,9-dihydro-1H-purine-6,8-dione] | > 500 | – | – | 6 | – |
